This is an account of results in patent US9914735B2, “Heteroaryl Syk inhibitors” (Boehringer Ingelheim International GmbH, priority 2014, dated 2018).

Data set [1] in a line: Human liver microsomal stability test. Format: in vitro ADME. To be noted: human liver microsomes; Qh = liver blood flow. The protocol: The metabolic degradation for a specific SYK-inhibitor is performed at 37° C. with pooled human liver microsomes (human liver microsomes are commercially available as “BD UltraPool™” by Corning Life Sciences, Fogostraat 12, 1060 LJ Amsterdam, The Netherlands). The final incubation volume of 100 μl per time point contains TRIS buffer pH 7.6 at RT (0.1 M), magnesium chloride (5 mM), microsomal protein (1 mg/ml) and the test compound at a final concentration of 1 μM.
Following a short preincubation period at 37° C., the reaction is initiated by addition of beta-nicotinamide adenine dinucleotide phosphate in its reduced form (NADPH, 1 mM) and terminated by transfering an aliquot into solvent after different time points. Additionally, the NADPH-independent degradation is monitored in incubations without NADPH, terminated at the last time point.
The quenched (terminated) incubations are then pelleted by centrifugation (10000 g, 5 min).
An aliquot of the supernatant is assayed by LC-MS/MS for the remaining amount of parent compound. The half-life (t1/2 INVITRO) is determined by the slope of the semilogarithmic plot of the concentration-time profile.
The intrinsic clearance (CL_[…]) is calculated by considering the amount of protein in the incubation: CL_[…][μl/min/mg protein]=(Ln 2/(t1/2 INVITRO[min]*protein content[mg/ml]))*1000
The protein content [mg/ml] was determined with the “Bicinchoninic Acid Kit” of Sigma Aldrich (commercially available).
The upscaled intrinsic Clearance (CL_UP_INT) is calculated by considering the liver weight [g liver/kg body weight] and the microsomal recovery [mg protein/g liver]: CL_UP_INT[ml/min/kg]=0.001*CL_[…]*liver weight*microsomal recovery • with microsomal recovery=45 mg protein/g liver • with liver weight=25.7 g liver/kg body weight
The percent hepatic blood flow (% Qh) is finally calculated by considering the human liver blood flow Q [ml/min/kg]: % Qh[%]=((Q*CL_UP_INT)/(Q+CL_UP_INT)/Q)*100 • with liver blood flow (Q)=20.7 ml/min/kg.

In another data set the target is FLT3 (Homo sapiens (Human), UniProt P36888). Briefly: FLT3 kinase test (Z'-LYTE). As to conditions: Table 1; read-out: FLT3-inhibition IC50-value. Format: biochemical. Here is the method: The activity of FLT3 is measured using the Z′-LYTETM assay technology from Invitrogen (#PV3191)
FLT3, sequence (P36888 27-993): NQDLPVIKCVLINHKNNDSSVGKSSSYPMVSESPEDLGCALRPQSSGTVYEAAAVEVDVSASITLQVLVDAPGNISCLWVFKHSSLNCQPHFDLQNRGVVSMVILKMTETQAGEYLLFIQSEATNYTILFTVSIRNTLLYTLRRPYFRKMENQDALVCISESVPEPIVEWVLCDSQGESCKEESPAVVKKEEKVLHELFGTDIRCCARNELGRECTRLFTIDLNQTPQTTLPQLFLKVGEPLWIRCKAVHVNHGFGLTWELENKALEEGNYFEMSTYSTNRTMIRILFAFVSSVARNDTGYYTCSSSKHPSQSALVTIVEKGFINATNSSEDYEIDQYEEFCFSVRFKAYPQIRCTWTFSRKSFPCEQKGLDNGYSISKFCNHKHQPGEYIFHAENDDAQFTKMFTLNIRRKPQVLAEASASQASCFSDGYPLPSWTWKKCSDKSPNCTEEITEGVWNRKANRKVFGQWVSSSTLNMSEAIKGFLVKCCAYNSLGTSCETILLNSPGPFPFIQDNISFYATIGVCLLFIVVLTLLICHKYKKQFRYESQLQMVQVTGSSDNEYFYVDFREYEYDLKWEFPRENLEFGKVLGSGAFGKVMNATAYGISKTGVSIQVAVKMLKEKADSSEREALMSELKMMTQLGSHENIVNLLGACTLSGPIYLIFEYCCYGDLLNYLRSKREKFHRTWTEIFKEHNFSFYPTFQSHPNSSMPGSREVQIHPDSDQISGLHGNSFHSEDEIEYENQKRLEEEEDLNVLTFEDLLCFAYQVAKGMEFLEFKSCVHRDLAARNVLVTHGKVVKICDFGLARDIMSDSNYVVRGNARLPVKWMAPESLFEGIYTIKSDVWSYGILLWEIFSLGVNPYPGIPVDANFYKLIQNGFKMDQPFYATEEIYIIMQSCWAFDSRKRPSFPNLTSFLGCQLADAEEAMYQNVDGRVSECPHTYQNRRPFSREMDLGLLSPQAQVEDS
The reaction is started by addition of 2.5 μl of the 4×ATP solution.
Positive controls are reaction mixtures containing no test compound; negative controls (blanks) are reaction mixtures containing no kinase. As a further control, the phosphopeptide solution is added to wells without kinase (=100% phosphorylation control).
The reaction is performed for 1 h at room temperature before 5 μl of the development solution is added. After a further incubation for 1 h at room temperature 5 μl of the stop reagent is added.
The output text file is evaluated in an “MS-Excel—VB-Makro” and “GraphPadPrism” (Version 5) (GraphPad Software Inc.) is used to calculate the results. Data for the inhibition of FLT3 are reported in M. data for the inhibition of the protease are reported in % CTL.

Data set [2] concerns the target Recombinant human Syk (amino acids 342-635), GST-Syk kinase fusion protein (Homo sapiens (Human), UniProt P43405). Put plainly: Syk kinase test (Kinase Glo luminescence). As to conditions: Table 1; read-out: SYK-inhibition IC50-value. Format: biochemical. Here is the method: (§1) The output file of the reader is a csv file that contains the well number and measured relative light units (RLU). For data evaluation and calculation, the measurement of the negative control was set as 100% ctrl and the measurement of the positive control was set as 0% ctrl. Based on this values the % value for the measurement of each substance concentration was calculated using an Assay Explorer software (Accelrys). Normally, the % ctrl values calculated are between 0% and 100% values but may also occur outside these limits in individual cases based on variability or compound characteristics. The IC50 values were calculated from the % ctrl values using Assay Explorer software. Calculation:[y=(a−d)/(1+(x/c)^b)+d] a=low value, d=high value; x=conc M; c=IC50 M; b=hill; y=% ctrl.

The target in data set [3] is Recombinant human Aurora B (amino acids 1-344) (Homo sapiens (Human), UniProt Q96GD4). Put plainly: Aurora B kinase test (ADP Glo luminescence). As to conditions: Table 1; read-out: AURB-inhibition IC50-value. Format: biochemical. The protocol: The activity of the Aurora B kinase protein was determined using the ADP Glo® Luminescence Kinase test (Promega; V9103X).
Recombinant human Aurora B (amino acids 1-344), sequence (Q96GD4 whole entry, the tested form may be a part): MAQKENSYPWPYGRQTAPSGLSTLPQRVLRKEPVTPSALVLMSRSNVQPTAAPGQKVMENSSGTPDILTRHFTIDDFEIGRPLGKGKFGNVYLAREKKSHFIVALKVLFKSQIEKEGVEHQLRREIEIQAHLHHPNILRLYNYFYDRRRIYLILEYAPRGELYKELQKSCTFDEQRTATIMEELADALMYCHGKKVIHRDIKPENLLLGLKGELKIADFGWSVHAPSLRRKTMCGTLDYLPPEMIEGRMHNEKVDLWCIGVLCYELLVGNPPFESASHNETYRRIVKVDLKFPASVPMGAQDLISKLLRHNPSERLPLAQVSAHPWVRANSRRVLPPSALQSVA
Serial Dilution is done in 1:10 steps in 100% DMSO.
Then 20 μl Kinase detection mix (Detection Buffer #V913B Promega; Kinase Detection Substrate #V914B Promega) were added and incubated for 40 minutes at room temperature.
as §1, with “measured RLU.” for “measured relative light units (RLU).”, “as 0%” for “as 100%”, “as 100%” for “as 0%”, “software. Calculation: [y=(a−d)/(1+(x/c)^b)+d],” for “software. Calculation:[y=(a−d)/(1+(x/c)^b)+d]”

Consider `C[C@@H](Oc1nc(-c2ccc(N3CCOCC3)nc2)cc2ncccc12)[C@H]1CNC(=O)C1` [45 of WO 2011/092128], for which the “microsomal stability Cl [% Qh]” value in data set [1] is listed as 53 % Qh.
For the compound `C[C@@H](Oc1nc(-c2cnn(C)c2)cc2nn(C)cc12)[C@H]1CNC(=O)C1` [Example 63, (4R)-4-[(1R)-1-[2-methyl-6-(1-methylpyrazol-4-yl)pyrazolo[4,3-c]pyridin-4-yl]oxyethyl]pyrrolidin-2-one], the values for the half-inhibitory concentration (IC50) (at FLT3; in data set [2]; in data set [3]) were 13.2 µM, 0.0473 µM and greater than 50 µM, respectively.
On to `C[C@@H](Oc1cc(-c2cnc3ccc(C#N)cn23)cc2nn(C)cc12)[C@H]1CNC(=O)C1` [Example 43, 3-[2-methyl-4-[(1R)-1-[(3R)-5-oxopyrrolidin-3-yl]ethoxy]indazol-6-yl]imidazo[1,2-a]pyridine-6-carbonitrile], for which the IC50 at FLT3 is 15.1 µM; in data set [2] it was 0.0649 µM; in data set [3], greater than 50 µM.
In the case of `C[C@@H](Oc1cc(-c2cnn(C(F)F)c2)cc2nn(C)cc12)[C@H]1CNC(=O)C1` [Example 40, (4R)-4-[(1R)-1-[6-[1-(difluoromethyl)pyrazol-4-yl]-2-methyl-indazol-4-yl]oxyethyl]pyrrolidin-2-one], the IC50 at FLT3 worked out at 8.95 µM; in data set [2] it was 0.0343 µM; in data set [3], 31.4 µM.
For the compound `C[C@@H](Oc1nc(-c2cnn(C3CC3)c2)cc2nn(C)cc12)[C@H]1CNC(=O)C1` [Example 78, (4R)-4-[(1R)-1-[6-(1-cyclopropylpyrazol-4-yl)-2-methyl-pyrazolo[4,3-c]pyridin-4-yl]oxyethyl]pyrrolidin-2-one], the IC50 was 22 µM at FLT3, 0.0359 µM in data set [2] and greater than 50 µM in data set [3].
On to `C[C@@H](Oc1cc(-c2cnn(CCC(F)(F)F)c2)cc2nn(C)cc12)[C@H]1CNC(=O)C1` [Example 15, (4R)-4-[(1R)-1-[2-Methyl-6-[1-(3,3,3-trifluoropropyl)pyrazol-4-yl]indazol-4-yl]oxyethyl]pyrrolidin-2-one], for which the IC50 is 10.1 µM on FLT3, 0.0187 µM in data set [2] and 33.4 µM in data set [3].
On to `Cc1ccc(-c2cc3nn(C)cc3c(O[C@H](C)[C@H]3CNC(=O)C3)n2)s1` [Example 54, (4R)-4-[(1R)-1-[2-methyl-6-(5-methyl-2-thienyl)pyrazolo-[4,3-c]pyridin-4-yl]oxyethyl]-pyrrolidin-2-one], for which the half-inhibitory concentration (IC50) at FLT3 is 16 µM; in data set [2] it was 0.0892 µM; in data set [3], greater than 50 µM.
For `C[C@@H](Oc1cc(-c2n[nH]c3ccc(C#N)cc23)cc2nn(C)cc12)[C@H]1CNC(=O)C1` [Example 16, 3-[2-methyl-4-[(1R)-1-[(3R)-5-oxopyrrolidin-3-yl]-ethoxy]indazol-6-yl]-1H-indazole-5-carbonitrile], in that order: 10.6 µM, 0.0065 µM and greater than 50 µM.
For `C[C@@H](Oc1nc(-c2cc3nn(C)cc3c(O[C@H](C)[C@H]3CNC(=O)C3)n2)cc2nn(C)cc12)[C@@H]1CNC(=O)C1` [Example 11, (4S)-4-[(1R)-1-[2-methyl-6-[2-methyl-4-[(1R)-1-[(3R)-5-oxopyrrolidin-3-yl]ethoxy]-pyrazolo[4,3-c]pyridin-6-yl]pyrazolo[4,3-c]pyridin-4-yl]oxyethyl]pyrrolidin-2-one], in that order: 37.4 µM, 0.935 µM and greater than 50 µM.
On to `COCCn1cc(-c2cc3nn(C)cc3c(O[C@H](C)[C@H]3CNC(=O)C3)n2)cn1` [Example 57, (4R)-4-[(1R)-1-[6-[1-(2-methoxyethyl)pyrazol-4-yl]-2-methyl-pyrazolo[4,3-c]pyridin-4-yl]oxyethyl]pyrrolidin-2-one], for which the results for the IC50 (at FLT3; in data set [2]; in data set [3]) were 32 µM, 0.0901 µM and greater than 50 µM, respectively.
For the compound `C[C@@H](Oc1cc(-c2ccc(N3CCCS3(=O)=O)cc2)cc2nn(C)cc12)[C@H]1CNC(=O)C1` [Example 33], the IC50 on FLT3 is 3.88 µM; in data set [2], 0.0245 µM; in data set [3] it was greater than 50 µM.
Consider `C[C@@H](Oc1cc(-c2cnn(C3CCOCC3)c2)cc2nn(C)cc12)[C@H]1CNC(=O)C1` [Example 47, (4R)-4-[(1R)-1-[2-methyl-6-(1-tetrahydropyran-4-ylpyrazol-4-yl)indazol-4-yl]oxyethyl]pyrrolidin-2-one], for which the IC50 at FLT3 came to 4.77 µM; in data set [2], 0.0067 µM; in data set [3], 26 µM.
For the compound `C[C@@H](Oc1nc(-c2ccc(C(F)(F)F)cc2)cc2nn(C)cc12)[C@H]1CNC(=O)C1` [Example 60, (4R)-4-[(1R)-1-[2-methyl-6-[4-(trifluoromethyl)phenyl]-pyrazolo[4,3-c]pyridin-4-yl]-oxyethyl]pyrrolidin-2-one], the IC50 on FLT3 amounted to 9.75 µM; in data set [2], 0.145 µM; in data set [3] it was 34.7 µM.
Turning to `C[C@@H](Oc1nc(-c2ccc(N3CCOCC3)nc2)cc2nn(C)cc12)[C@H]1CNC(=O)C1` [Example 66, (4R)-4-[(1R)-1-[2-methyl-6-(6-morpholino-3-pyridyl)-pyrazolo[4,3-c]pyridin-4-yl]oxyethyl]pyrrolidin-2-one], the IC50 on FLT3 was 4.44 µM; in data set [2], 0.0385 µM; in data set [3], greater than 50 µM.
For the compound `C[C@@H](Oc1nc(-c2cnn(C3CCCCC3)c2)cc2nn(C)cc12)[C@H]1CNC(=O)C1` [Example 7, (R)-4-((R)-1-(6-(1-cyclohexyl-1H-pyrazol-4-yl)-2-methyl-2H-pyrazolo[4,3-c]pyridin-4-yloxy)ethyl)pyrrolidin-2-one], the IC50 at FLT3 came to 5.77 µM; in data set [2], 0.0147 µM; in data set [3], 37.3 µM.
For `Cc1c(-c2cc3nn(C)cc3c(O[C@H](C)[C@H]3CNC(=O)C3)n2)cnn1C` [Example 69, (4R)-4-[(1R)-1-[6-(1,5-dimethylpyrazol-4-yl)-2-methyl-pyrazolo[4,3-c]pyridin-4-yl]oxyethyl]pyrrolidin-2-one], in that order: 45.1 µM, 0.197 µM and greater than 50 µM.
Regarding `C[C@@H](Oc1nc(-c2cnn([C@H]3CCOC3)c2)cc2nn(C)cc12)[C@H]1CNC(=O)C1` [Example 70, (4R)-4-[(1R)-1-[2-methyl-6-[1-[(3S)-tetrahydrofuran-3-yl]pyrazol-4-yl]pyrazolo[4,3-c]pyridin-4-yl]oxyethyl]-pyrrolidin-2-one], the concentration for half-maximal inhibition (IC50) is 17 µM at FLT3, 0.0345 µM in data set [2] and greater than 50 µM in data set [3].
In the case of `C[C@@H](Oc1cc(-c2cc3cccc(Cl)c3[nH]2)cc2nn(C)cc12)[C@H]1CNC(=O)C1` [Example 48, (4R)-4-[(1R)-1-[6-(7-chloro-1H-indol-2-yl)-2-methyl-indazol-4-yl]oxyethyl]-pyrrolidin-2-one], the IC50 at FLT3 was 16.9 µM; in data set [2], 0.0556 µM; in data set [3], greater than 50 µM.
